Results taken from patent US12263248B2, “Compounds and compositions for intracellular delivery of therapeutic agents” (ModernaTX, Inc., priority 2018, dated 2025).

Assays:
luciferase (Luc) mRNA [1] = experiment: Luc expression (total flux) after intramuscular administration; format: in vivo, mice; settings: for i.m. Lipid/MC3 0.01 mpk, Luc, 6 h: Table 3B; for Total flux (p/s) 0.01 mpk Dose: Table 5B, 6 hours after intramuscular administration; for Novel lipid/MC3 expression ratio, 6 hr. time point, i.m. Luc: relative to MC3 formulation
Method in brief: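 Total-flux luciferase signal in mice after one intramuscular injection. Nanoparticle formulations contained modified Luc mRNA, either alone or co-dosed with H10 mRNA (e.g., 0.0005 or 0.005 mpk of each), giving 0.001 or 0.01 mpk.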

[2] = Particle size and polydispersity index of nanoparticle compositions (Zetasizer Nano ZS); format: physicochemical
Method in brief: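 Values are size and PDI readings from a Zetasizer Nano ZS. Measurements are taken in 1×PBS; zeta potential, by contrast, uses 15 mM PBS.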

luciferase (Luc) mRNA [3] = experiment: Luc expression in liver, lung, spleen and femur 6 hours after intravenous administration; format: in vivo; settings: mice, 0.5 mpk; for Total Flux Liver / Total Flux Lung / Total Flux Spleen: intravenous
Method in brief: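 LNP-formulated mRNA given IV to mice (n=3) at 0.5 mpk; at 6 h, bioluminescence imaged ex vivo 15 min after IP D-luciferin (15 mg/mL, 200 μL), organs imaged within 25 min. Values are total flux by region of interest.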

[4] = Apparent (surface) pKa of the LNP formulation (TNS assay); format: physicochemical; settings: for pKa: Table 1A
Method in brief: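 Fluorescence of TNS probe added to LNP samples (mRNA 0.04 mg/mL) was read across 21 buffers of pH about 3-12, triplicate per pH. The inflection point of the sigmoidal fluorescence-vs-pH curve, […], gives apparent pKa; method validated in 1× PBS and Tris/sucrose buffer.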

[5] = Table 1A, lipid:DSPC:cholesterol:PEG-DMG 50:10:38.5:1.5 mol %
[6] = Table 1B, formulated with hEPO mRNA
[7] = Table 1E, compositions for subcutaneous administration
[8] = Table 1C, compositions for subcutaneous administration

| Compound | i.m. Lipid/MC3 0.01 mpk, Luc, 6 h (luciferase (Luc) mRNA [1]; 0.01 mpk) | Total flux (p/s) 0.01 mpk Dose (luciferase (Luc) mRNA [1]; 0.01 mpk) | Novel lipid/MC3 expression ratio, 6 hr. time point, i.m. Luc (luciferase (Luc) mRNA [1]; intramuscular) | PDI ([2]; Table 1A) | Size (nm) [2, 5] | PDI [2, 6] | Size (nm) [2, 6] | PDI [2, 7] | Size (nm) [2, 7] | Total Flux Liver (luciferase (Luc) mRNA [3]) | Total Flux Lung (luciferase (Luc) mRNA [3]) | Total Flux Spleen (luciferase (Luc) mRNA [3]) | pKa [4] | further results |
| --- | --- | --- | --- | --- | --- | --- | --- | --- | --- | --- | --- | --- | --- | --- |
| CCCCCCCCCOC(=O)CCCCCCCN(CCCCCCCC(=O)OC(CCCCCCCC)CCCCCCCC)CCCNS(C)(=O)=O [Compound 109, Heptadecan-9-yl 8-((3-(methylsulfonamido)propyl)(8-(nonyloxy)-8-oxooctyl)amino)octanoate] | 3.6 | 1.18E+08 p/s | 3.65 | 0.13 | 81.1 nm | 0.099 | 75 nm | 0.10 | 67.0 nm | 8.17E+08 | 6.03E+06 | 4.81E+07 | 6.78 | – |
| CCCCCCCCCOC(=O)CCCCCCCN(CCCCCCCC(=O)OC(CCCCCCCC)CCCCCCCC)CCCNC(C)=O [Compound 108, Heptadecan-9-yl 8-((3-acetamidopropyl)(8-(nonyloxy)-8-oxooctyl)amino)octanoate] | 14.2 | 4.60E+08 p/s | 14.2 | 0.14 | 119 nm | 0.22 | 89.6 nm | 0.15 | 96.1 nm | 4.63E+08 | 9.81E+06 | 7.82E+08 | 7.17 | Luc expression upon intramuscular administration (luciferase (Luc) mRNA [1]; 0.01 mpk, in words): highest expression; flux measured at 6 h relative to the MC3 formulation (luciferase (Luc) mRNA [1]; intramuscular administration (i.m.), in words): fourteen; Flux in the spleen (luciferase (Luc) mRNA [3]; i.v., in words): highest |
| CCCCCCCCCOC(=O)CCCCCCCN(CCCCCCCC(=O)OC(CCCCCCCC)CCCCCCCC)CCCNC(=O)NC [Compound 112, Heptadecan-9-yl 8-((3-(3-methylureido)propyl)(8-(nonyloxy)-8-oxooctyl)amino)octanoate] | – | 9.47E+07 p/s | 2.93 | 0.22 | 83.7 nm | 0.21 | 60.6 nm | – | – | 1.48E+08 | 1.83E+06 | 2.75E+07 | 7.78 | PDI [2, 8]: 0.22; Size (nm) [2, 8]: 83.7 nm; Apparent pKa ([4]; Table 3G): 7.78 |
| CCCCCCCCC(CCCCCCCC)OC(=O)CCCCCCCN(CCO)CCCCCC(=O)OC(CCCCCCCC)C1CC1 (stereo not shown) [Compound 128, Heptadecan-9-yl 8-((6-((1-cyclopropylnonyl)oxy)-6-oxohexyl)(2-hydroxyethyl)amino)octanoate] | – | – | – | 0.22 | 104.1 nm | – | – | 0.13 | 73.9 nm | 5.98E+09 | 2.16E+07 | 7.09E+07 | 6.56 | AUC (p/s * h) (luciferase (Luc) mRNA [1]; Table 3H, intramuscular, Luc): 8.59E+08 p/s * h; Lipid/MC3 AUC (luciferase (Luc) mRNA [1]; Table 3H, intramuscular, Luc): 1.46 |
